# Source: patent US8450266B2 (Ipsen Pharma S.A.S., priority 2008, dated 2013)
# Where a SMILES comes first, the peptide text is derived from it. [ ]: non-standard residue; d: D form. The star is where a group is joined. Ac6c = NC1(C(=O)O)CCCCC1; X1 = CCCN1C(=O)CC(*)C1=O
# Legend:
# [1] = Human plasma half-life assay (LC-MS); assay type: in vitro ADME; settings: incubated at 37° C., read-out: Human Plasma T½ (converted)
# Method in brief: (§1)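 Aliquots taken from human or rat plasma at time points up to 72 h, quenched with formic acid and acetonitrile, centrifuged. Supernatant analyzed by LC-MS (ESI, positive ion, full scan) on a C8 column with a water/acetonitrile 1% formic acid gradient.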
# [2] = Rat plasma half-life assay (LC-MS); assay type: in vitro ADME; settings: incubated at 37° C., read-out: Rat Plasma T½ (converted)
# Method in brief: as §1
Compound,half-life at 0.1 mg/mL [1] [h],half-life at 0.1 mg/mL [2] [h]
"CCCN1C(=O)CC(SC[C@H](NC(=O)[C@H](CCCCN)NC(=O)[C@H](CCC(N)=O)NC(=O)[C@H](C)NC(=O)[C@H](CC(C)C)NC(=O)[C@H](CC(C)C)NC(=O)[C@H](Cc2c[nH]c3ccccc23)NC(=O)[C@H](CC(N)=O)NC(=O)[C@@H](NC(=O)[C@H](Cc2ccccc2)NC(=O)[C@H](CC(=O)O)NC(=O)[C@H](CCC(N)=O)NC(=O)[C@H](CCC(N)=O)NC(=O)[C@H](Cc2c[nH]cn2)NC(=O)[C@@H](NC(=O)[C@H](CCCCN)NC(=O)[C@H](CC(=O)O)NC(=O)[C@H](CCSC)NC(=O)[C@H](C)NC(=O)[C@@H](NC(=O)[C@H](CO)NC(=O)[C@H](Cc2ccc(O)cc2)NC(=O)[C@H](CC(=O)O)NC(=O)[C@H](CO)NC(=O)C2(NC(=O)[C@@H](N)Cc3ccccc3)CCCCC2)[C@@H](C)CC)[C@@H](C)CC)C(C)C)C(=O)N[C@@H](CCCCN)C(=O)N[C@@H](CCCCN)C(=O)N[C@@H](CC(N)=O)C(=O)N[C@@H](CC(=O)O)C(=O)N[C@@H](Cc2c[nH]c3ccccc23)C(=O)N[C@@H](CCCCN)C(=O)N[C@@H](Cc2c[nH]cn2)C(=O)N[C@@H](CC(N)=O)C(=O)N[C@H](C(=O)N[C@H](C(=O)N[C@@H](CCC(N)=O)C(=O)O)[C@@H](C)O)[C@@H](C)CC)C1=O (some centres unmarked) [Example 31, [A6c^7, Cys(Psu)^31]hGIP(6-42)-OH] (H-F[Ac6c]SDYSIAMDKIHQQDFVNWLLAQKC(X1)KKNDWKHNITQ-OH)",4.4,5.1
"CC[C@H](C)[C@H](NC(=O)[C@H](CO)NC(=O)[C@H](Cc1ccc(O)cc1)NC(=O)[C@H](CC(=O)O)NC(=O)[C@H](CO)NC(=O)C1(NC(=O)[C@H](Cc2ccccc2)NC(C)=O)CCCCC1)C(=O)N[C@@H](C)C(=O)N[C@@H](CCSC)C(=O)N[C@@H](CC(=O)O)C(=O)N[C@@H](CCCCN)C(=O)N[C@H](C(=O)N[C@@H](Cc1c[nH]cn1)C(=O)N[C@@H](CCC(N)=O)C(=O)N[C@@H](CCC(N)=O)C(=O)N[C@@H](CC(=O)O)C(=O)N[C@@H](Cc1ccccc1)C(=O)N[C@H](C(=O)N[C@@H](CC(N)=O)C(=O)N[C@@H](Cc1c[nH]c2ccccc12)C(=O)N[C@@H](CC(C)C)C(=O)N[C@@H](CC(C)C)C(=O)N[C@@H](C)C(=O)N[C@@H](CCC(N)=O)C(=O)N[C@@H](CCCCN)C(N)=O)C(C)C)[C@@H](C)CC [Example 32, (Ac-Phe^6, A6c^7)hGIP(6-30)-NH2]",24.1,60.3
"CCCN1C(=O)CC(SC[C@H](NC(=O)[C@H](CCCCN)NC(=O)[C@H](CCC(N)=O)NC(=O)[C@H](C)NC(=O)[C@H](CC(C)C)NC(=O)[C@H](CC(C)C)NC(=O)[C@H](Cc2c[nH]c3ccccc23)NC(=O)[C@H](CC(N)=O)NC(=O)[C@@H](NC(=O)[C@H](Cc2ccccc2)NC(=O)[C@H](CC(=O)O)NC(=O)[C@H](CCC(N)=O)NC(=O)[C@H](CCC(N)=O)NC(=O)[C@H](Cc2c[nH]cn2)NC(=O)[C@@H](NC(=O)[C@H](CCCCN)NC(=O)[C@H](CC(=O)O)NC(=O)[C@H](CCSC)NC(=O)[C@H](C)NC(=O)[C@@H](NC(=O)[C@H](CO)NC(=O)[C@H](Cc2ccc(O)cc2)NC(=O)[C@H](CC(=O)O)NC(=O)[C@H](CO)NC(=O)C2(NC(=O)[C@H](Cc3ccccc3)NC(C)=O)CCCCC2)[C@@H](C)CC)[C@@H](C)CC)C(C)C)C(N)=O)C1=O (some centres unmarked) [Example 33, [Ac-Phe^6, A6c^7, Cys(Psu)^31]hGIP(6-31)-NH2]",13.6,10.2
"CCCN1C(=O)CC(SC[C@H](NC(=O)[C@H](CCCCN)NC(=O)[C@H](CCC(N)=O)NC(=O)[C@H](C)NC(=O)[C@H](CC(C)C)NC(=O)[C@H](CC(C)C)NC(=O)[C@H](Cc2c[nH]c3ccccc23)NC(=O)[C@H](CC(N)=O)NC(=O)[C@@H](NC(=O)[C@H](Cc2ccccc2)NC(=O)[C@H](CC(=O)O)NC(=O)[C@H](CCC(N)=O)NC(=O)[C@H](CCC(N)=O)NC(=O)[C@H](Cc2c[nH]cn2)NC(=O)[C@@H](NC(=O)[C@H](CCCCN)NC(=O)[C@H](CC(=O)O)NC(=O)[C@H](CCSC)NC(=O)[C@H](C)NC(=O)[C@@H](NC(=O)[C@H](CO)NC(=O)[C@H](Cc2ccc(O)cc2)NC(=O)[C@H](CC(=O)O)NC(=O)[C@H](CO)NC(=O)C2(NC(=O)[C@@H](N)Cc3ccccc3)CCCCC2)[C@@H](C)CC)[C@@H](C)CC)C(C)C)C(N)=O)C1=O (some centres unmarked) [Example 34, [A6c^7, Cys(Psu)^31]hGIP(6-31)-NH2]",11.3,7.4
"CCCC[C@H](NC(=O)[C@H](C)NC(=O)[C@@H](NC(=O)[C@H](CO)NC(=O)[C@H](Cc1ccc(O)cc1)NC(=O)[C@H](CC(=O)O)NC(=O)[C@H](CO)NC(=O)C1(NC(=O)[C@@H](N)Cc2ccccc2)CCCC1)[C@@H](C)CC)C(=O)N[C@@H](CC(=O)O)C(=O)N[C@@H](CCCCN)C(=O)N[C@H](C(=O)N[C@@H](Cc1c[nH]cn1)C(=O)N[C@@H](CCC(N)=O)C(=O)N[C@@H](CCC(N)=O)C(=O)N[C@@H](CC(=O)O)C(=O)N[C@@H](Cc1ccccc1)C(=O)N[C@H](C(=O)N[C@@H](CC(N)=O)C(=O)N[C@@H](Cc1c[nH]c2ccccc12)C(=O)N[C@@H](CC(C)C)C(=O)N[C@@H](CC(C)C)C(=O)N[C@@H](C)C(=O)N[C@@H](CCC(N)=O)C(=O)N[C@@H](CCCCN)C(N)=O)C(C)C)[C@@H](C)CC [Example 35, (A5c^7, Nle^14)hGIP(6-30)-NH2] (HELM PEPTIDE1{F.[O=C(C1(N[*:1])CCCC1)[*:2]].S.D.Y.S.I.A.[Nle].D.K.I.H.Q.Q.D.F.V.N.W.L.L.A.Q.K.[am]}$$$$V2.0)",16.5,23
"CCCC[C@H](NC(=O)[C@H](C)NC(=O)[C@@H](NC(=O)[C@H](CO)NC(=O)[C@H](Cc1ccc(O)cc1)NC(=O)[C@H](CC(=O)O)NC(=O)[C@H](CO)NC(=O)C1(NC(=O)[C@@H](N)Cc2ccccc2)CCCCC1)[C@@H](C)CC)C(=O)N[C@@H](CC(=O)O)C(=O)N[C@@H](CCCCN)C(=O)N[C@H](C(=O)N[C@@H](Cc1c[nH]cn1)C(=O)N[C@@H](CCC(N)=O)C(=O)N[C@@H](CCC(N)=O)C(=O)N[C@@H](CC(=O)O)C(=O)N[C@@H](Cc1ccccc1)C(=O)N[C@H](C(=O)N[C@@H](CC(N)=O)C(=O)N[C@@H](Cc1c[nH]c2ccccc12)C(=O)N[C@@H](CC(C)C)C(=O)N[C@@H](CC(C)C)C(=O)N[C@@H](C)C(=O)N[C@@H](CCC(N)=O)C(=O)N[C@@H](CCCCN)C(N)=O)C(C)C)[C@@H](C)CC [Example 36, (A6c^7, Nle^14)hGIP(6-30)-NH2] (HELM PEPTIDE1{F.[O=C(C1(N[*:1])CCCCC1)[*:2]].S.D.Y.S.I.A.[Nle].D.K.I.H.Q.Q.D.F.V.N.W.L.L.A.Q.K.[am]}$$$$V2.0)",21.9,21.6
"CCCC[C@H](NC(=O)[C@H](C)NC(=O)[C@@H](NC(=O)C(C)(C)NC(=O)[C@H](Cc1ccc(O)cc1)NC(=O)[C@H](CC(=O)O)NC(=O)[C@H](CO)NC(=O)[C@@H](NC(=O)[C@@H](N)Cc1ccccc1)[C@@H](C)CC)[C@@H](C)CC)C(=O)N[C@@H](CC(=O)O)C(=O)N[C@@H](CCCCN)C(=O)N[C@H](C(=O)N[C@@H](Cc1c[nH]cn1)C(=O)N[C@@H](CCC(N)=O)C(=O)N[C@@H](CCC(N)=O)C(=O)N[C@@H](CC(=O)O)C(=O)N[C@@H](Cc1ccccc1)C(=O)N[C@H](C(=O)N[C@@H](CC(N)=O)C(=O)N[C@@H](Cc1c[nH]c2ccccc12)C(=O)N[C@@H](CC(C)C)C(=O)N[C@@H](CC(C)C)C(=O)N[C@@H](C)C(=O)N[C@@H](CCC(N)=O)C(=O)N[C@@H](CCCCN)C(N)=O)C(C)C)[C@@H](C)CC [Example 37, (Aib^11, Nle^14)hGIP(6-30)-NH2] (HELM PEPTIDE1{F.I.S.D.Y.[Aib].I.A.[Nle].D.K.I.H.Q.Q.D.F.V.N.W.L.L.A.Q.K.[am]}$$$$V2.0)",13.5,28.5
